Assay results as given in the kinase profiling compilation of Christmann-Franck et al. (2016).
One block for each compound: values may come before it.

Columns and labels:
Assay in all cases: radiometric filter-binding kinase assay
PIM1 (human) = PIM1 (human) (UniProt P11309)
MAP3K11 (human) = MAP3K11 (human) (UniProt Q16584)
MAPKAPK2 (human) = MAPKAPK2 (human) (UniProt P49137)
[1] = system: AKT1 (human), P31749 [S473D]
NEK2 (human) = NEK2 (human) (UniProt P51955)
MARK3 (human) = MARK3 (human) (UniProt P27448)
EPHB2 (human) = EPHB2 (human) (UniProt P29323)
NEK6 (human) = NEK6 (human) (UniProt Q9HC98)
MAPK3 (human) = MAPK3 (human) (UniProt P27361)
MAPK9 (human) = MAPK9 (human) (UniProt P45984)
JAK2 JH1 JH2 (human) = JAK2 JH1 JH2 (human) (UniProt O60674)
[2] = system: RPS6KB1 (human), P23443 [T412E]
TTK (human) = TTK (human) (UniProt P33981)
MARK2 (human) = MARK2 (human) (UniProt Q7KZI7)
CaMK1 (human) = CaMK1 (human) (UniProt Q14012)
MKNK2 (human) = MKNK2 (human) (UniProt Q9HBH9)
IRAK4 (human) = IRAK4 (human) (UniProt Q9NWZ3)
CHEK2 (human) = CHEK2 (human) (UniProt O96017)
STK3 (human) = STK3 (human) (UniProt Q13188)
NUAK1 (human) = NUAK1 (human) (UniProt O60285)
CSNK1D (human) = CSNK1D (human) (UniProt P48730)
MAPK14 (human) = MAPK14 (human) (UniProt Q16539)
MARK1 (human) = MARK1 (human) (UniProt Q9P0L2)
PAK4 (human) = PAK4 (human) (UniProt O96013)
MAPK8 (human) = MAPK8 (human) (UniProt P45983)
TBK1 (human) = TBK1 (human) (UniProt Q9UHD2)
DYRK3 (human) = DYRK3 (human) (UniProt O43781)
RPS6KA1 KD1 KD2 (human) = RPS6KA1 KD1 KD2 (human) (UniProt Q15418)
NTRK1 (human) = NTRK1 (human) (UniProt P04629)
MAP2K1 (human) = MAP2K1 (human) (UniProt Q02750)
IKBKE (human) = IKBKE (human) (UniProt Q14164)
[3] = molecular target: STK11 CAB39 STRADA (human) (UniProt Q9Y376+Q7RTN6+Q15831)
DYRK1A (human) = DYRK1A (human) (UniProt Q13627)
MKNK1 (human) = MKNK1 (human) (UniProt Q9BUB5)
IKBKB (human) = IKBKB (human) (UniProt O14920)

Sequence of CHEK2 (human) (O96017 whole entry, looked up): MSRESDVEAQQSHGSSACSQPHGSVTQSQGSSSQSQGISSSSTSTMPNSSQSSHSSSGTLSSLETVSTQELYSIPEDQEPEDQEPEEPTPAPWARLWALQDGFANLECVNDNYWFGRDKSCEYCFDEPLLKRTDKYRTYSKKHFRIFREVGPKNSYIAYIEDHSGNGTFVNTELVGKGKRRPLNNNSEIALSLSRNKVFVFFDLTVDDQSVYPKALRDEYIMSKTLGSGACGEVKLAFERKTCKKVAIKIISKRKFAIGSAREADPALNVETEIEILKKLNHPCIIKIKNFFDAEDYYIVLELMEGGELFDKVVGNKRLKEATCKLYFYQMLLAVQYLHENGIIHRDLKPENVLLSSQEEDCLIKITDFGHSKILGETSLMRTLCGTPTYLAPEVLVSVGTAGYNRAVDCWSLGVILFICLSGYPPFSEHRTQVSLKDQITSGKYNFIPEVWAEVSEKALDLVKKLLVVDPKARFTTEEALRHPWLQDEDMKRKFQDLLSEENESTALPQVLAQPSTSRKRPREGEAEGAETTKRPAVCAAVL
Sequence of MKNK2 (human) (Q9HBH9 whole entry, looked up): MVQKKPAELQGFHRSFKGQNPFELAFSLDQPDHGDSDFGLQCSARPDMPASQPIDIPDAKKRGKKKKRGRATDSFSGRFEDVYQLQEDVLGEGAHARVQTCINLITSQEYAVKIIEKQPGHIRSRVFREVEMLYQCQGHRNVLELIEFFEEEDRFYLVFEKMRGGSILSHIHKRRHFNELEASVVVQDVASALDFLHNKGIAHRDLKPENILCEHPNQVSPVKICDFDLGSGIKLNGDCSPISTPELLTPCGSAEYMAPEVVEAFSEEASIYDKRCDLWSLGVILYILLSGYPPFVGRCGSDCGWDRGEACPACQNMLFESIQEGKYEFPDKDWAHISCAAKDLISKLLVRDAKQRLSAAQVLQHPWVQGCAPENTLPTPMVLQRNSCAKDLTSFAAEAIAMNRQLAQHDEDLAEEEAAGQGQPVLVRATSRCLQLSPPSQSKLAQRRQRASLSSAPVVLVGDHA
Sequence of TTK (human) (P33981 whole entry, looked up): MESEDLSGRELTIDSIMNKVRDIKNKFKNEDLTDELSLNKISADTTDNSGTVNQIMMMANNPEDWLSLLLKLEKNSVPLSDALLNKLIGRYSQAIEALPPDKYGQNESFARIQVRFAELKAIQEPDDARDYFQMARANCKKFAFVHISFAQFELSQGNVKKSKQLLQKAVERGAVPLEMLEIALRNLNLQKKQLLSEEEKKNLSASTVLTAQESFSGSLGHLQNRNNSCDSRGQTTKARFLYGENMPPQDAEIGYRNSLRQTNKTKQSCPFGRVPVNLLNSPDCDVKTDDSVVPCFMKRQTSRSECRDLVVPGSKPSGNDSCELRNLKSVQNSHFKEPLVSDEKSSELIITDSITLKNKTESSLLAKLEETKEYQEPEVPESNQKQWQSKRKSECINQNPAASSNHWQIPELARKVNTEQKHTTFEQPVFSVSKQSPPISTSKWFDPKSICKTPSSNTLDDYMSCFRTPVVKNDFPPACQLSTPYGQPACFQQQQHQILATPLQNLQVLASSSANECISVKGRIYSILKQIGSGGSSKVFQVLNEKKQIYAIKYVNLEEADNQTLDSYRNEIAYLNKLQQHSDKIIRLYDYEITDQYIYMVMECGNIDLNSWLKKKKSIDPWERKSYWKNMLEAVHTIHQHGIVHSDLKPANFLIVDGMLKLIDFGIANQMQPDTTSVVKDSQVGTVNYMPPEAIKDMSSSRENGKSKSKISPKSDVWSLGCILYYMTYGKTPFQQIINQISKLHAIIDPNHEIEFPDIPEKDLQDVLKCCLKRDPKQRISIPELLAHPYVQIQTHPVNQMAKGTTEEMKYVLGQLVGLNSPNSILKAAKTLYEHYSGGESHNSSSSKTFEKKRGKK
Sequence of RPS6KA1 KD1 KD2 (human) (Q15418 whole entry, looked up): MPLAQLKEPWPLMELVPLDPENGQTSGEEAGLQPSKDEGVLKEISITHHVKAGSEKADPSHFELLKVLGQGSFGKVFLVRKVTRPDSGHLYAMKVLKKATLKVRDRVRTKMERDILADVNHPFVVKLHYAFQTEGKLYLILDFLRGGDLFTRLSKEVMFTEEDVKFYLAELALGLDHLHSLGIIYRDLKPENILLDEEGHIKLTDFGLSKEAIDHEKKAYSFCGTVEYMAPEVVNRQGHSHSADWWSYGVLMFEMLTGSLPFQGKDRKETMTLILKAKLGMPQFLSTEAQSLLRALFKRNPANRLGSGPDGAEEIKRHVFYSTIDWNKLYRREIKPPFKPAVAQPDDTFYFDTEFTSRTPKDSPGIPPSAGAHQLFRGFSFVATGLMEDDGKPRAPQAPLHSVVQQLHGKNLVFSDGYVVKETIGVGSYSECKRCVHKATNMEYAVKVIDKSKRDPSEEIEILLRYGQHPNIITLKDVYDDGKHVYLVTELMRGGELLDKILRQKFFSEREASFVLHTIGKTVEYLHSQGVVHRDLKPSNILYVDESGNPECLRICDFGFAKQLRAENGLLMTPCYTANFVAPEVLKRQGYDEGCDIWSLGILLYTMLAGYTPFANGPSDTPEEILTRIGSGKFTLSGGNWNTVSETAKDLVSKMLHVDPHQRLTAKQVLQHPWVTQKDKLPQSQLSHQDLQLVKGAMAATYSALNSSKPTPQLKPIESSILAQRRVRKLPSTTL
Sequence of STK3 (human) (Q13188 whole entry, looked up): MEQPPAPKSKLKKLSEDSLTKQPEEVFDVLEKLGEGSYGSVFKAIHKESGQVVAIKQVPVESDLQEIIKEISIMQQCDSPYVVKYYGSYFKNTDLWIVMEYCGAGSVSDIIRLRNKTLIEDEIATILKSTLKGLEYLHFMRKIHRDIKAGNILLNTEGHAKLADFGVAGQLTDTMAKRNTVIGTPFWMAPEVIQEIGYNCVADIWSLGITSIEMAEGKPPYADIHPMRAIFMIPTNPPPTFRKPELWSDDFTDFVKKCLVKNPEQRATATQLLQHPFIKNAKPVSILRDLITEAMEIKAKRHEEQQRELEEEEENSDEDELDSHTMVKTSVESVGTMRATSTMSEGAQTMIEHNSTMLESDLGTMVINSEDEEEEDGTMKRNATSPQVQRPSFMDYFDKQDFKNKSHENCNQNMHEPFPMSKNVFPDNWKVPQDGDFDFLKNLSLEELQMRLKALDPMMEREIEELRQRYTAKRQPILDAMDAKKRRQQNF
Sequence of IRAK4 (human) (Q9NWZ3 whole entry, looked up): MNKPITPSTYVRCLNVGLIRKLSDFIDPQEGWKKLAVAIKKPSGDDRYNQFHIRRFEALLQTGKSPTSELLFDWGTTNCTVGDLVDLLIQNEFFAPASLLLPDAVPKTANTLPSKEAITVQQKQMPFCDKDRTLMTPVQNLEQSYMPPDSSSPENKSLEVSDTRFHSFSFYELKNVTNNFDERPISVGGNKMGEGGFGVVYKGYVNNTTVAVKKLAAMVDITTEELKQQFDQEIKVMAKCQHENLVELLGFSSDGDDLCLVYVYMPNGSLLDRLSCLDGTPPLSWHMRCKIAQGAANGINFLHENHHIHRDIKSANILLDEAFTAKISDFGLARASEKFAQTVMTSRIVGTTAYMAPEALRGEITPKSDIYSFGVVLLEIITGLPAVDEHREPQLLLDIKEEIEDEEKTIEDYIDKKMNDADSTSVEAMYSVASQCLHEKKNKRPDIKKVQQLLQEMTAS
Sequence of MAPK8 (human) (P45983 whole entry, looked up): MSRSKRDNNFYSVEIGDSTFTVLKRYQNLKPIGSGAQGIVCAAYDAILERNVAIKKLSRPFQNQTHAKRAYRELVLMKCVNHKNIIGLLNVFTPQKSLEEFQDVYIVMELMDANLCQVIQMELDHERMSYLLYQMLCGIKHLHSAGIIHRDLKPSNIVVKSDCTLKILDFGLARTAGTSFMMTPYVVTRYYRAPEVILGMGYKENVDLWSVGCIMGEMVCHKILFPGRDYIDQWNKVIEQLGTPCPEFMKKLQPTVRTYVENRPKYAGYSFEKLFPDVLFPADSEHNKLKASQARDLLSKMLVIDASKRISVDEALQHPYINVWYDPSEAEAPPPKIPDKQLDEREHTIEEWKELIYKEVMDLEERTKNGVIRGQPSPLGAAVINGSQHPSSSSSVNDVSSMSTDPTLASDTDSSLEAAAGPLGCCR
Sequence of NEK2 (human) (P51955 whole entry, looked up): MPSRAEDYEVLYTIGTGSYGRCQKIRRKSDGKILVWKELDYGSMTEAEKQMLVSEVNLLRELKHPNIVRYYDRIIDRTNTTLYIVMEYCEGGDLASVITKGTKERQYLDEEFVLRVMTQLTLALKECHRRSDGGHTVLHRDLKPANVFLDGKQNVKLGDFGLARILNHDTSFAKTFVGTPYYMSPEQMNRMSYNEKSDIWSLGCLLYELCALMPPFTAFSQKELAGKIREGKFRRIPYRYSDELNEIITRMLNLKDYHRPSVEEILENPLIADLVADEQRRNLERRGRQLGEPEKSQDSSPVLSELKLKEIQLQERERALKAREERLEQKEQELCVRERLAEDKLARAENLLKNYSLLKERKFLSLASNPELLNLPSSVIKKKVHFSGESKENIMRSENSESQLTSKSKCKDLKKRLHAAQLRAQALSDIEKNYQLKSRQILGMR
Sequence of MAPKAPK2 (human) (P49137 whole entry, looked up): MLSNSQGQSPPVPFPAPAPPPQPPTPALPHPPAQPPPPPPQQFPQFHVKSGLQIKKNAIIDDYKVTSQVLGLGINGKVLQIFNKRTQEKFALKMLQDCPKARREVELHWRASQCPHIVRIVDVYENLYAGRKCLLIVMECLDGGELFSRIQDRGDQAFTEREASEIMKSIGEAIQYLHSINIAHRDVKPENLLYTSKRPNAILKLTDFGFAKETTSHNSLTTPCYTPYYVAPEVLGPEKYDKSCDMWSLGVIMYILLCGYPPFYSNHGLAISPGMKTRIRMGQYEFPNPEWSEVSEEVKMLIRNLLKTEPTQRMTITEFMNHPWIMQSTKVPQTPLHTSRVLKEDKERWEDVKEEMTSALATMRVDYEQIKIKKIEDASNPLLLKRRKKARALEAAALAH

residual activity (PIM1 (human); compound 0.1 µM): 102% | residual activity (PIM1 (human); compound 1.0 µM): 72% | residual activity (MAP3K11 (human); compound 0.1 µM): 114% | residual activity (MAP3K11 (human); compound 1.0 µM): 79% | residual activity (MAPKAPK2 (human); compound 0.1 µM): 124% | residual activity (MAPKAPK2 (human); compound 1.0 µM): 79% | residual activity ([1]; compound 0.1 µM): 111% | residual activity ([1]; compound 1.0 µM): 91% | residual activity (NEK2 (human); compound 0.1 µM): 108% | residual activity (NEK2 (human); compound 1.0 µM): 89% | residual activity (MARK3 (human); compound 0.1 µM): 116% | residual activity (MARK3 (human); compound 1.0 µM): 77% | residual activity (EPHB2 (human); compound 1.0 µM): 75% | residual activity (NEK6 (human); compound 0.1 µM): 122% | residual activity (NEK6 (human); compound 1.0 µM): 93% | residual activity (MAPK3 (human); compound 0.1 µM): 106% | residual activity (MAPK3 (human); compound 1.0 µM): 64% | residual activity (MAPK9 (human); compound 0.1 µM): 109% | residual activity (MAPK9 (human); compound 1.0 µM): 81% | residual activity (JAK2 JH1 JH2 (human); compound 0.1 µM): 108% | residual activity (JAK2 JH1 JH2 (human); compound 1.0 µM): 75% | residual activity ([2]; compound 0.1 µM): 112% | residual activity ([2]; compound 1.0 µM): 82% | residual activity (TTK (human); compound 0.1 µM): 104% | residual activity (TTK (human); compound 1.0 µM): 91% | residual activity (MARK2 (human); compound 0.1 µM): 109% | residual activity (MARK2 (human); compound 1.0 µM): 114% | residual activity (CaMK1 (human); compound 0.1 µM): 88% | residual activity (CaMK1 (human); compound 1.0 µM): 105% | residual activity (MKNK2 (human); compound 0.1 µM): 41% | residual activity (MKNK2 (human); compound 1.0 µM): 26% | residual activity (IRAK4 (human); compound 0.1 µM): 99% | residual activity (IRAK4 (human); compound 1.0 µM): 28% | residual activity (CHEK2 (human); compound 0.1 µM): 110% | residual activity (CHEK2 (human); compound 1.0 µM): 87% | residual activity (STK3 (human); compound 0.1 µM): 120% | residual activity (STK3 (human); compound 1.0 µM): 89% | residual activity (NUAK1 (human); compound 0.1 µM): 113% | residual activity (NUAK1 (human); compound 1.0 µM): 78% | residual activity (CSNK1D (human); compound 0.1 µM): 102% | residual activity (CSNK1D (human); compound 1.0 µM): 104% | residual activity (MAPK14 (human); compound 0.1 µM): 103% | residual activity (MAPK14 (human); compound 1.0 µM): 85% | residual activity (MARK1 (human); compound 0.1 µM): 112% | residual activity (MARK1 (human); compound 1.0 µM): 99% | residual activity (PAK4 (human); compound 0.1 µM): 94% | residual activity (PAK4 (human); compound 1.0 µM): 81% | residual activity (MAPK8 (human); compound 0.1 µM): 90% | residual activity (MAPK8 (human); compound 1.0 µM): 52% | residual activity (TBK1 (human); compound 0.1 µM): 105% | residual activity (TBK1 (human); compound 1.0 µM): 102% | residual activity (DYRK3 (human); compound 0.1 µM): 94% | residual activity (DYRK3 (human); compound 1.0 µM): 101% | residual activity (RPS6KA1 KD1 KD2 (human); compound 0.1 µM): 113% | residual activity (RPS6KA1 KD1 KD2 (human); compound 1.0 µM): 90% | residual activity (NTRK1 (human); compound 0.1 µM): 46% | residual activity (NTRK1 (human); compound 1.0 µM): 24% | residual activity (MAP2K1 (human); compound 0.1 µM): 13% | residual activity (MAP2K1 (human); compound 1.0 µM): 2% | residual activity (IKBKE (human); compound 0.1 µM): 120% | residual activity (IKBKE (human); compound 1.0 µM): 92% | residual activity ([3]; compound 0.1 µM): 138% | residual activity ([3]; compound 1.0 µM): 65% | residual activity (DYRK1A (human); compound 0.1 µM): 117% | residual activity (DYRK1A (human); compound 1.0 µM): 97% | residual activity (MKNK1 (human); compound 0.1 µM): 55% | residual activity (MKNK1 (human); compound 1.0 µM): 13% | residual activity (IKBKB (human); compound 0.1 µM): 102% | residual activity (IKBKB (human); compound 1.0 µM): 95%
SMILES: COc1cc(O)c2c(c1)/C=C/C[C@H](O)[C@H](O)C(=O)/C=C\C[C@H](C)OC2=O

residual activity (PIM1 (human); compound 0.1 µM): 83% | residual activity (PIM1 (human); compound 1.0 µM): 83% | residual activity (PIM1 (human); compound 10.0 µM): 82% | residual activity (MAP3K11 (human); compound 0.1 µM): 86% | residual activity (MAP3K11 (human); compound 1.0 µM): 33% | residual activity (MAP3K11 (human); compound 10.0 µM): 8% | residual activity (MAPKAPK2 (human); compound 0.1 µM): 81% | residual activity (MAPKAPK2 (human); compound 1.0 µM): 91% | residual activity (MAPKAPK2 (human); compound 10.0 µM): 73% | residual activity ([1]; compound 0.1 µM): 102% | residual activity ([1]; compound 1.0 µM): 103% | residual activity (NEK2 (human); compound 0.1 µM): 118% | residual activity (NEK2 (human); compound 1.0 µM): 119% | residual activity (NEK2 (human); compound 10.0 µM): 79% | residual activity (MARK3 (human); compound 0.1 µM): 78% | residual activity (MARK3 (human); compound 1.0 µM): 34% | residual activity (MARK3 (human); compound 10.0 µM): 11% | residual activity (EPHB2 (human); compound 0.1 µM): 108% | residual activity (EPHB2 (human); compound 1.0 µM): 80% | residual activity (EPHB2 (human); compound 10.0 µM): 37% | residual activity (NEK6 (human); compound 0.1 µM): 80% | residual activity (NEK6 (human); compound 1.0 µM): 83% | residual activity (NEK6 (human); compound 10.0 µM): 88% | residual activity (MAPK3 (human); compound 0.1 µM): 89% | residual activity (MAPK3 (human); compound 1.0 µM): 97% | residual activity (MAPK3 (human); compound 10.0 µM): 90% | residual activity (MAPK9 (human); compound 0.1 µM): 88% | residual activity (MAPK9 (human); compound 1.0 µM): 103% | residual activity (MAPK9 (human); compound 10.0 µM): 83% | residual activity (JAK2 JH1 JH2 (human); compound 0.1 µM): 100% | residual activity (JAK2 JH1 JH2 (human); compound 1.0 µM): 104% | residual activity (JAK2 JH1 JH2 (human); compound 10.0 µM): 79% | residual activity ([2]; compound 1.0 µM): 92% | residual activity ([2]; compound 10.0 µM): 84% | residual activity (TTK (human); compound 0.1 µM): 89% | residual activity (TTK (human); compound 1.0 µM): 101% | residual activity (TTK (human); compound 10.0 µM): 61% | residual activity (MARK2 (human); compound 0.1 µM): 76% | residual activity (MARK2 (human); compound 1.0 µM): 63% | residual activity (MARK2 (human); compound 10.0 µM): 32% | residual activity (CaMK1 (human); compound 0.1 µM): 86% | residual activity (CaMK1 (human); compound 1.0 µM): 85% | residual activity (CaMK1 (human); compound 10.0 µM): 45% | residual activity (MKNK2 (human); compound 0.1 µM): 90% | residual activity (MKNK2 (human); compound 1.0 µM): 60% | residual activity (MKNK2 (human); compound 10.0 µM): 34% | residual activity (IRAK4 (human); compound 0.1 µM): 88% | residual activity (IRAK4 (human); compound 1.0 µM): 91% | residual activity (IRAK4 (human); compound 10.0 µM): 53% | residual activity (CHEK2 (human); compound 0.1 µM): 99% | residual activity (CHEK2 (human); compound 1.0 µM): 103% | residual activity (CHEK2 (human); compound 10.0 µM): 59% | residual activity (STK3 (human); compound 0.1 µM): 102% | residual activity (STK3 (human); compound 1.0 µM): 104% | residual activity (STK3 (human); compound 10.0 µM): 76% | residual activity (NUAK1 (human); compound 0.1 µM): 57% | residual activity (NUAK1 (human); compound 1.0 µM): 17% | residual activity (NUAK1 (human); compound 10.0 µM): 5% | residual activity (CSNK1D (human); compound 0.1 µM): 91% | residual activity (CSNK1D (human); compound 1.0 µM): 69% | residual activity (CSNK1D (human); compound 10.0 µM): 22% | residual activity (MAPK14 (human); compound 0.1 µM): 78% | residual activity (MAPK14 (human); compound 1.0 µM): 84% | residual activity (MAPK14 (human); compound 10.0 µM): 75% | residual activity (MARK1 (human); compound 0.1 µM): 88% | residual activity (MARK1 (human); compound 1.0 µM): 54% | residual activity (MARK1 (human); compound 10.0 µM): 14% | residual activity (PAK4 (human); compound 0.1 µM): 82% | residual activity (PAK4 (human); compound 1.0 µM): 94% | residual activity (PAK4 (human); compound 10.0 µM): 62% | residual activity (MAPK8 (human); compound 0.1 µM): 89% | residual activity (MAPK8 (human); compound 1.0 µM): 101% | residual activity (MAPK8 (human); compound 10.0 µM): 78% | residual activity (TBK1 (human); compound 0.1 µM): 74% | residual activity (TBK1 (human); compound 1.0 µM): 62% | residual activity (TBK1 (human); compound 10.0 µM): 26% | residual activity (DYRK3 (human); compound 0.1 µM): 86% | residual activity (DYRK3 (human); compound 1.0 µM): 89% | residual activity (RPS6KA1 KD1 KD2 (human); compound 0.1 µM): 86% | residual activity (RPS6KA1 KD1 KD2 (human); compound 1.0 µM): 79% | residual activity (RPS6KA1 KD1 KD2 (human); compound 10.0 µM): 29% | residual activity (NTRK1 (human); compound 0.1 µM): 87% | residual activity (NTRK1 (human); compound 1.0 µM): 71% | residual activity (NTRK1 (human); compound 10.0 µM): 38% | residual activity (MAP2K1 (human); compound 0.1 µM): 98% | residual activity (MAP2K1 (human); compound 1.0 µM): 93% | residual activity (MAP2K1 (human); compound 10.0 µM): 67% | residual activity (IKBKE (human); compound 0.1 µM): 87% | residual activity (IKBKE (human); compound 1.0 µM): 89% | residual activity (IKBKE (human); compound 10.0 µM): 56% | residual activity ([3]; compound 0.1 µM): 109% | residual activity ([3]; compound 1.0 µM): 98% | residual activity ([3]; compound 10.0 µM): 80% | residual activity (DYRK1A (human); compound 0.1 µM): 75% | residual activity (DYRK1A (human); compound 1.0 µM): 40% | residual activity (DYRK1A (human); compound 10.0 µM): 9% | residual activity (MKNK1 (human); compound 0.1 µM): 82% | residual activity (MKNK1 (human); compound 1.0 µM): 63% | residual activity (MKNK1 (human); compound 10.0 µM): 39% | residual activity (IKBKB (human); compound 1.0 µM): 98% | residual activity (IKBKB (human); compound 10.0 µM): 83%
SMILES: c1ccc2c(-c3cnn4cc(-c5ccc(N6CCNCC6)cc5)cnc34)ccnc2c1
